Series [1] deals with Plasmodium falciparum. Briefly: Antimalarial activity against chloroquine-resistant Plasmodium falciparum K1. It is filed as functional, organism-based.
For series [2], the system named is Plasmodium falciparum. As to the kind of experiment: Antimalarial activity against chloroquine-sensitive Plasmodium falciparum D6. The class given is functional, organism-based.
Series [3] concerns Plasmodium falciparum. As to the kind of experiment: Antimalarial activity against chloroquine-resistant Plasmodium falciparum W2. It is filed as functional, organism-based.
The subject of series [4] is Plasmodium falciparum. As to the kind of experiment: Antimalarial activity against chloroquine-resistant Plasmodium falciparum […]. The class given is functional, organism-based.
The subject of series [5] is Plasmodium falciparum. As to the kind of experiment: Antimalarial activity against chloroquine-sensitive Plasmodium falciparum 3D7. It is filed as functional, organism-based.
For series [6], the system named is Plasmodium falciparum. As to the kind of experiment: Antimalarial activity against […] Plasmodium falciparum W2. The class given is functional, organism-based.
Series [7] can be described thus: Selectivity index, ratio of CC50 for human MRC5 cells assessed as reduction in cell viability to MIC for chloroquine-resistant Plasmodium falciparum K1. As to conditions: read-out: Selectivity Index. The class given is toxicity.
The test system of another series is Staphylococcus aureus. Briefly: Antimicrobial activity against Staphylococcus aureus. It is filed as functional.
The test system of another series is Enterococcus faecalis. As to the kind of experiment: Antimicrobial activity against Enterococcus faecalis. It is filed as functional.
A short description of series [8]: Selectivity index, ratio of CC50 for human MRC5 cells assessed as reduction in cell viability to MIC for […]. The class given is toxicity. The following applies: read-out: Selectivity Index.
The next series concerns MRC5. As to the kind of experiment: Cytotoxicity against human MRC5 cells assessed as reduction in cell viability. It is filed as functional.
In another series the test system is PC-3. Briefly: Cytotoxicity against human PC3 cells assessed as reduction in cell viability. It is filed as functional, cell-based.

The structures appear in SMILES notation. Converted amounts (≈) assume the structure as drawn.

With `Fc1ccc(-c2nc3ccc(N(Cc4cn(-c5cccc(C(F)(F)F)c5)nn4)Cc4cn(-c5cccc(C(F)(F)F)c5)nn4)cc3nc2-c2ccc(F)cc2)cc1`, in the series on Plasmodium falciparum [1], the IC50 is 9.76 to 3540 µM. Still for that read-out and setting: in the case of `O=[N+]([O-])c1cccc(-n2cc(CN(Cc3cn(-c4cccc([N+](=O)[O-])c4)nn3)c3ccc4nc(-c5ccccc5)c(-c5ccccc5)nc4c3)nn2)c1` it was 9.76 to 3540 µM. As to `Clc1ccc2c(NCCn3cc(COc4c(Cl)cccc4Cl)nn3)ccnc2c1`, the values for the IC50 in the series with Plasmodium falciparum [2] and in the series on Plasmodium falciparum [3] were 900 to 11500 nM and 0.9 to 11.5 µM, respectively. In the series on Plasmodium falciparum [4], `Cc1nnc(Cn2cc(C(=O)NNC(=S)Nc3ccccc3)c(=O)c3cc(F)c(Cl)cc32)n1N` came in with a concentration for half-maximal inhibition (IC50) of 3.91 µM. As for `OCc1cn(CCNc2ccnc3cc(Cl)ccc23)nn1`, the IC50 in the series on Plasmodium falciparum [2] is 900 to 11500 nM; with Plasmodium falciparum [3], 0.9 to 11.5 µM. The matching figures for `Clc1ccc2c(NCCCn3cc(COc4ccc5ccccc5c4)nn3)ccnc2c1`: 590 to 4710 nM and 0.59 to 4.71 µM. The molecule `COc1ccc2cc3[n+](cc2c1OCc1cn(-c2ccc(S(N)(=O)=O)cc2)nn1)CCc1cc2c(cc1-3)OCO2` registered an IC50 with Plasmodium falciparum [5] of 0.142 to 28 µM. On to `C[C@@H]1CC[C@H]2[C@@H](C)C(=O)O[C@@H]3O[C@@]4(C)CC[C@@H]1[C@]32OO4` [ARTEMISININ], for which the figures for the IC50 in the series with Plasmodium falciparum [2] and with Plasmodium falciparum [3] were 30 nM and 0.25 µM, respectively. As for `COc1ccc2cc3[n+](cc2c1OCc1cn(-c2ccc(S(=O)(=O)N4CCCCC4)cc2)nn1)CCc1cc2c(cc1-3)OCO2`, the IC50 in the series with Plasmodium falciparum [5] fell in the range of 0.142 to 28 µM. As to `COc1cccc(-n2cc(CNc3ccc4nc(-c5ccc(F)cc5)c(-c5ccc(F)cc5)nc4c3)nn2)c1`, the IC50 in the series with Plasmodium falciparum [1] fell in the range of 7.1 to 153 µM. With `CC(=O)c1ccc(OCc2cn(CCNc3ccnc4cc(Cl)ccc34)nn2)cc1`, the IC50 in the series with Plasmodium falciparum [2] was 900 to 11500 nM; with Plasmodium falciparum [3], 0.9 to 11.5 µM. In the series with Plasmodium falciparum [1], `Fc1ccc(-n2cc(CN(Cc3cn(-c4ccc(F)cc4)nn3)c3ccc4nc(-c5ccccc5)c(-c5ccccc5)nc4c3)nn2)cc1` had an IC50 of 9.76 to 3540 µM.

`Cc1cccc(OCc2cn(CCNc3ccnc4cc(Cl)ccc34)nn2)c1`: the half-inhibitory concentration (IC50) in the series with Plasmodium falciparum [2] was in the range of 900 to 11500 nM; in the series with Plasmodium falciparum [3], 0.9 to 11.5 µM.

As to `O=C(CSc1nnc(Cc2ccccc2)n1-c1ccccc1)N1CCc2ccccc21`, the IC50 in the series on Plasmodium falciparum [6] and with Plasmodium falciparum [3] was 4.59 µM each time. In the series with Plasmodium falciparum [1], `c1ccc(-c2nc3ccc(NCc4cn(-c5ccccc5)nn4)cc3nc2-c2ccccc2)cc1` gave an IC50 of 7.1 to 153 µM. For `CC[C@H]1OC(=O)C[C@@H](O)[C@H](C)C(O[C@@H]2O[C@H](C)[C@@H](O)[C@H](N(C)C)[C@H]2O)C(CC=O)C[C@@H](C)C(=N\OCCCc2cn(-c3cnc4ccccc4c3)nn2)/C=C/C(C)=C/[C@@H]1CO[C@@H]1O[C@H](C)[C@@H](O)[C@@H](OC)[C@H]1OC` (some centres not stated), the selectivity ratio in [7] and in series [8] was 59 each time. The MIC in the series on Staphylococcus aureus and in the series on Enterococcus faecalis was 0.5 to 1 µg/mL (≈ 0.489 to 0.977 µM) each time. Besides, the CC50 in the series on MRC5 was 43 µg/mL (≈ 42 µM). Further, in the series on Plasmodium falciparum [1], it took 0.73 µg/mL to reach half-maximal inhibition (IC50).

For the molecule `Fc1ccc(-c2nc3ccc(NCc4cn(-c5ccccc5)nn4)cc3nc2-c2ccc(F)cc2)cc1`, the IC50 in the series on Plasmodium falciparum [1] lay in the range of 7.1 to 153 µM.

For the molecule `O=C(CSc1nnc(Cc2ccccc2)n1-c1ccc(Cl)cc1)N1CCc2ccccc21`, the IC50 in the series with Plasmodium falciparum [6] and with Plasmodium falciparum [3] was 48.8 µM each time. In the series with Plasmodium falciparum [1], `Fc1ccc(-c2nc3ccc(N(Cc4cn(-c5ccccc5)nn4)Cc4cn(-c5ccccc5)nn4)cc3nc2-c2ccc(F)cc2)cc1` registered an IC50 of 9.76 to 3540 µM. In the series with Plasmodium falciparum [5], `COc1ccc2cc3[n+](cc2c1OCc1cn(-c2ccc(S(=O)(=O)N4CCOCC4)cc2)nn1)CCc1cc2c(cc1-3)OCO2` had an IC50 of 0.142 to 28 µM. Take `COc1ccc2cc3[n+](cc2c1OCc1cn(-c2ccc(S(=O)(=O)Nc4ccccc4)cc2)nn1)CCc1cc2c(cc1-3)OCO2`: in the series with Plasmodium falciparum [5], the IC50 lay within 0.142 to 28 µM. On the same count and under the same terms, in the case of `COc1ccc(NS(=O)(=O)c2ccc(-n3cc(COc4c(OC)ccc5cc6[n+](cc45)CCc4cc5c(cc4-6)OCO5)nn3)cc2)cc1` it was 0.142 to 28 µM. In the series on Plasmodium falciparum [1], `Cc1ccc(-n2cc(CNc3ccc4nc(-c5ccc(F)cc5)c(-c5ccc(F)cc5)nc4c3)nn2)cc1` showed an IC50 of 7.1 to 153 µM. With `Cc1cc(OCc2cn(CCNc3ccnc4cc(Cl)ccc34)nn2)ccc1Cl`, the IC50 in the series with Plasmodium falciparum [2] is 900 to 11500 nM; with Plasmodium falciparum [3], 0.9 to 11.5 µM. With `Fc1ccc(-c2nc3ccc(NCc4cn(-c5cccc(C(F)(F)F)c5)nn4)cc3nc2-c2ccc(F)cc2)cc1`, the IC50 with Plasmodium falciparum [1] was in the range of 7.1 to 153 µM.

For the molecule `COc1ccc2cc3[n+](cc2c1OCc1cn(-c2ccc(S(=O)(=O)Nc4ccc(Cl)cc4)cc2)nn1)CCc1cc2c(cc1-3)OCO2`, the IC50 is 142 nM with PC-3 and 0.142 to 28 µM in the series on Plasmodium falciparum [5].

The molecule `Fc1ccc(-n2cc(CNc3ccc4nc(-c5ccccc5)c(-c5ccccc5)nc4c3)nn2)cc1` returned an IC50 with Plasmodium falciparum [1] of 7.1 to 153 µM.

`Clc1ccc2c(NCCn3cc(COc4ccc5ccccc5c4)nn3)ccnc2c1`: the IC50 in the series on Plasmodium falciparum [2] lay within 900 to 11500 nM; in the series on Plasmodium falciparum [3], 0.9 to 11.5 µM. Regarding `FC(F)(F)c1cccc(-n2cc(CN(Cc3cn(-c4cccc(C(F)(F)F)c4)nn3)c3ccc4nc(-c5ccccc5)c(-c5ccccc5)nc4c3)nn2)c1`, in the series with Plasmodium falciparum [1], the IC50 was 9.76 to 3540 µM.

`Clc1ccc2c(NCCn3cc(COc4ccc(Br)cc4)nn3)ccnc2c1`: the IC50 in the series with Plasmodium falciparum [2] was 900 to 11500 nM; in the series with Plasmodium falciparum [3], 0.9 to 11.5 µM.

The values above are taken from ChEMBL document CHEMBL4609974, “Triazole derivatives and their antiplasmodial and antimalarial activities” (Eur J Med Chem, 2019).
